Data from patent publication US11667645B2, “Granzyme B directed imaging and therapy” (CytoSite Biopharma Inc., priority 2018, dated 2023).

Molecular target: Granzyme B (human lymphocytes) (Homo sapiens (Human), UniProt P10144)
Experiment: human Granzyme B biochemical assay
Conditions: Granzyme B (human lymphocytes) 5 nM, substrate Ac-IETD-AFC 200 μM, Cpd incubation with enzyme 30 mins, 22° C., read time 60 mins; read-out: IC50
How it was run: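 Enzyme (10 nM working stock, assay buffer with 0.1% BSA) pre-incubated with compound for 30 min at 22 °C, then Ac-IETD-AFC (800 µM working stock) added for 60 min at 22 °C in the dark. Fluorescence read at Ex 400/Em 505 nm; 8-point 3.16-fold series (40 µM top working stock); IC50 from % inhibition versus standard-inhibitor and DMSO controls.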

Granzyme B (human lymphocytes), sequence (P10144 21-247): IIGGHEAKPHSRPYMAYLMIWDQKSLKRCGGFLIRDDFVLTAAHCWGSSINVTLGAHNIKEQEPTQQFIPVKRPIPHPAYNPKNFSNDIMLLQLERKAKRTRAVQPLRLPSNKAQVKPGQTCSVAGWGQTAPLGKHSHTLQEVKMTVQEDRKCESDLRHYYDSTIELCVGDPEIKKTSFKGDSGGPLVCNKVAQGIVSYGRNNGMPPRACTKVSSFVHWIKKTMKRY

SMILES | IC50 [µM]
O=C(Cc1csc2ccccc12)N[C@@H](Cc1ccccc1)C(=O)N[C@H]1CCc2cccc3c2N(C1=O)[C@H](C(=O)NCc1c[nH]nn1)C3 [Compound C004, (2S,5S)-5-[(S)-2-(2-Benzo[b]thiophen-3-yl-acetylamino)-3-phenyl-propionylamino]-4-oxo-1,2,4,5,6,7-hexahydro-azepino[3,2,1-hi]indole-2-carboxylic acid (1H-[1,2,3]triazol-4-ylmethyl)-amide] | > 5
CC[C@H](C)[C@H](NC(=O)COCCF)C(=O)N[C@H]1CCc2cccc3c2N(C1=O)[C@H](C(=O)NCc1cocn1)C3 [Compound C114, (2S,5S)-5-{(2S,3S)-2-[2-(2-Fluoro-ethoxy)-acetylamino]-3-methyl-pentanoylamino}-4-oxo-1,2,4,5,6,7-hexahydro-azepino[3,2,1-hi]indole-2-carboxylic acid (oxazol-4-ylmethyl)-amide] | > 5
CC[C@H](C)[C@H](NC(=O)COCCF)C(=O)N[C@H]1CCc2cccc3c2N(C1=O)[C@H](C(=O)NCc1cnsc1)C3 [Compound C118, (2S,5S)-5-{(2S,3S)-2-[2-(2-Fluoro-ethoxy)-acetylamino]-3-methyl-pentanoylamino}-4-oxo-1,2,4,5,6,7-hexahydro-azepino[3,2,1-hi]indole-2-carboxylic acid (isothiazol-4-ylmethyl)-amide] | > 5
CC[C@H](NC(=O)c1ccccc1)C(=O)N[C@H]1CCc2cccc3c2N(C1=O)[C@H](C(=O)NCc1c[nH]nn1)C3 [Compound C045, (2S,5S)-5-((S)-2-Benzoylamino-butyrylamino)-4-oxo-1,2,4,5,6,7-hexahydro-azepino[3,2,1-hi]indole-2-carboxylic acid (1H-[1,2,3]triazol-4ylmethyl)-amide] | 1 to 5
CC(=O)N[C@H](C(=O)N[C@H]1CCc2cccc3c2N(C1=O)[C@H](C(=O)N[C@@H](CCC(=O)O)C(=O)O)C3)C(C)C [Compound C094, (S)-2-{[(2S,5S)-5-((S)-2-Acetylamino-3-methyl-butyrylamino)-4-oxo-1,2,4,5,6,7-hexahydro-azepino[3,2,1-hi]indole-2-carbonyl]-amino}-pentanedioic acid] | > 5
O=C(N[C@@H](Cc1ccccc1)C(=O)N[C@H]1CCc2cccc3c2N(C1=O)[C@H](C(=O)NCc1c[nH]nn1)C3)c1ccccc1 [Compound C037] | 1 to 5
CC[C@H](C)[C@H](NC(=O)COCCF)C(=O)N[C@H]1CCc2cccc3c2N(C1=O)[C@H](C(=O)NCc1cccnc1)C3 [Compound C122, (2S,5S)-5-{(2S,3S)-2-[2-(2-Fluoro-ethoxy)-acetylamino]-3-methyl-pentanoylamino}-4-oxo-1,2,4,5,6,7-hexahydro-azepino[3,2,1-hi]indole-2-carboxylic acid (pyridin-3-ylmethyl)-amide] | > 5
CC[C@H](C)[C@H](NC(=O)COCCF)C(=O)N[C@H]1CCc2cccc3c2N(C1=O)[C@H](C(=O)NCc1cc(O)n[nH]1)C3 [Compound C166, (2S,5S)-5-{(2S,3S)-2-[2-(2-Fluoro-ethoxy)-acetylamino]-3-methyl-pentanoylamino}-4-oxo-1,2,4,5,6,7-hexahydro-azepino[3,2,1-hi]indole-2-carboxylic acid (5-hydroxy-2H-pyrazol-3-ylmethyl)-amide] | 1 to 5
CC(=O)N[C@@H](C)C(=O)N[C@H]1CCc2cccc3c2N(C1=O)[C@H](C(=O)NCc1c[nH]nn1)C3 [Compound C024, (2S,5S)-5-((S)-2-Acetylamino-propionylamino)-4-oxo-1,2,4,5,6,7-hexahydro-azepino[3,2,1-hi]indole-2-carboxylic acid (1H-[1,2,3]triazol-4-ylmethyl)-amide] | > 5
CC[C@H](C)[C@H](NC(=O)COCCF)C(=O)N[C@H]1CCc2cccc3c2N(C1=O)[C@H](C(=O)NCCc1cnn[nH]1)C3 [Compound C120, (2S,5S)-5-{(2S,3S)-2-[2-(2-Fluoro-ethoxy)-acetylamino]-3-methyl-pentanoylamino}-4-oxo-1,2,4,5,6,7-hexahydro-azepino[3,2,1-hi]indole-2-carboxylic acid [2-(3H-[1,2,3]triazol-4-yl)-ethyl]-amide] | > 5
O=C(Cc1csc2ccccc12)N[C@H](C(=O)N[C@H]1CCc2cccc3c2N(C1=O)[C@H](C(=O)NCc1c[nH]nn1)C3)c1ccccc1 [Compound C009, (2S,5S)-5-[(S)-2-(2-Benzo[b]thiophen-3-yl-acetylamino)-2-phenyl-acetylamino]-4-oxo-1,2,4,5,6,7-hexahydro-azepino[3,2,1-hi]indole-2-carboxylic acid (1H-[1,2,3]triazol-4-ylmethyl)-amide] | > 5
CC[C@H](C)[C@H](NC(=O)COCCF)C(=O)N[C@H]1CCc2cccc3c2N(C1=O)[C@H](C(=O)NCc1ccc(C)cc1)C3 [Compound C129, (2S,5S)-5-{(2S,3S)-2-[2-(2-Fluoro-ethoxy)-acetylamino]-3-methyl-pentanoylamino}-4-oxo-1,2,4,5,6,7-hexahydro-azepino[3,2,1-hi]indole-2-carboxylic acid 4-methyl-benzylamide] | > 5
O=C(Cc1ccccc1)N[C@H](C(=O)N[C@H]1CCc2cccc3c2N(C1=O)[C@H](C(=O)NCc1c[nH]nn1)C3)c1ccccc1 [Compound C020, (2S,5S)-4-Oxo-5-((S)-2-phenyl-2-phenylacetylamino-acetylamino)-1,2,4,5,6,7-hexahydro-azepino[3,2,1-hi]indole-2-carboxylic acid (1H-[1,2,3]triazol-4-ylmethyl)-amide] | > 5
COC(=O)CNC(=O)[C@@H]1Cc2cccc3c2N1C(=O)[C@@H](NC(=O)[C@@H](NC(C)=O)C(C)C)CC3 [Compound C086, {[(2S,5S)-5-((S)-2-Acetylamino-3-methyl-butyrylamino)-4-oxo-1,2,4,5,6,7-hexahydro-azepino[3,2,1-hi]indole-2-carbonyl]-amino}-acetic acid methyl ester] | > 5
CC(=O)N[C@@H](Cc1ccc(F)cc1)C(=O)N[C@H]1CCc2cccc3c2N(C1=O)[C@H](C(=O)NCc1c[nH]nn1)C3 [Compound C033, (2S,5S)-5-[(S)-2-Acetylamino-3-(4-fluoro-phenyl)-propionylamino]-4-oxo-1,2,4,5,6,7-hexahydro-azepino[3,2,1-hi]indole-2-carboxylic acid (1H-[1,2,3]triazol-4-ylmethyl)-amide] | 1 to 5

The next lines start with the values.

IC50 [µM] | SMILES
0.301 to 1 | CC(C)[C@H](NC(=O)c1ccc(F)cc1)C(=O)N[C@H]1CCc2cccc3c2N(C1=O)[C@H](C(=O)NCc1c[nH]nn1)C3 [Compound C047, (2S,5S)-5-[(S)-2-(4-Fluoro-benzoylamino)-3-methyl-butyrylamino]-4-oxo-1,2,4,5,6,7-hexahydro-azepino[3,2,1-hi]indole-2-carboxylic acid (1H-[1,2,3]triazol-4-ylmethyl)-amide]
0.001 to 0.3 | O=C(N[C@H](C(=O)N[C@H]1CCc2cccc3c2N(C1=O)[C@H](C(=O)NCc1c[nH]nn1)C3)C1CCC1)c1ccccc1 [Compound C084, (2S,5S)-5-((S)-2-Benzoylamino-2-cyclobutyl-acetylamino)-4-oxo-1,2,4,5,6,7-hexahydro-azepino[3,2,1-hi]indole-2-carboxylic acid (1H-[1,2,3]triazol-4-ylmethyl)-amide]
0.001 to 0.3 | Cc1ccc(C(=O)N[C@H](C(=O)N[C@H]2CCc3cccc4c3N(C2=O)[C@H](C(=O)NCc2c[nH]nn2)C4)C(C)C)cc1 [Compound C052, (2S,5S)-5-[(S)-3-Methyl-2-(4-methyl-benzoylamino)-butyrylamino]-4-oxo-1,2,4,5,6,7-hexahydro-azepino[3,2,1-hi]indole-2-carboxylic acid (1H-[1,2,3]triazol-4-ylmethyl)-amide]
1 to 5 | CC(C)C[C@H](NC(=O)Cc1ccccc1)C(=O)N[C@H]1CCc2cccc3c2N(C1=O)[C@H](C(=O)NCc1c[nH]nn1)C3 [Compound C016, (2S,5S)-5-((S)-4-Methyl-2-phenylacetylamino-pentanoylamino)-4-oxo-1,2,4,5,6,7-hexahydro-azepino[3,2,1-hi]indole-2-carboxylic acid (1H-[1,2,3]triazol-4-ylmethyl)-amide]
0.001 to 0.3 | CC(C)[C@H](NC(=O)c1ccncc1)C(=O)N[C@H]1CCc2cccc3c2N(C1=O)[C@H](C(=O)NCc1c[nH]nn1)C3 [Compound C071, (2S,5S)-5-{(S)-3-Methyl-2-[(pyridine-4-carbonyl)-amino]-butyrylamino}-4-oxo-1,2,4,5,6,7-hexahydro-azepino[3,2,1-hi]indole-2-carboxylic acid (1H-[1,2,3]triazol-4-ylmethyl)-amide]
0.001 to 0.3 | CC(C)[C@H](NC(=O)c1ccccn1)C(=O)N[C@H]1CCc2cccc3c2N(C1=O)[C@H](C(=O)NCc1c[nH]nn1)C3 [Compound C069, (2S,5S)-5-{(S)-3-Methyl-2-[(pyridine-2-carbonyl)-amino]-butyrylamino}-4-oxo-1,2,4,5,6,7-hexahydro-azepino[3,2,1-hi]indole-2-carboxylic acid (1H-[1,2,3]triazol-4-ylmethyl)-amide]
0.301 to 1 | CCC(CC)[C@H](NC(=O)c1ccccc1)C(=O)N[C@H]1CCc2cccc3c2N(C1=O)[C@H](C(=O)NCc1c[nH]nn1)C3 [Compound C073, (2S,5S)-5-((S)-2-Benzoylamino-3-ethyl-pentanoylamino)-4-oxo-1,2,4,5,6,7-hexahydro-azepino[3,2,1-hi]indole-2-carboxylic acid (1H-[1,2,3]triazol-4-ylmethyl)-amide]
0.001 to 0.3 | CC[C@H](C)[C@H](NC(=O)Cc1cc2ccccc2[nH]1)C(=O)N[C@H]1CCc2cccc3c2N(C1=O)[C@H](C(=O)NCc1c[nH]nn1)C3 [Compound C161, (2S,5S)-5-[(2S,3S)-2-(2-1H-Indol-2-yl-acetylamino)-3-methyl-pentanoylamino]-4-oxo-1,2,4,5,6,7-hexahydro-azepino[3,2,1-hi]indole-2-carboxylicacid (1H-[1,2,3]triazol-4-ylmethyl)-amide]
